{
  "source": "patent US9861651B2",
  "about": "“Use of nicotinamide riboside to treat hearing loss” (Cornell University, priority 2012, dated 2018)",
  "key": {"[1]": {"tested_on": "P5 DIV3 rat spiral ganglia neurons", "assay": "Rotenone-induced neurite degeneration (neurite beading/blebbing, NF-200 stain) in spiral ganglia neuron culture", "type": "cell-based", "procedure": "Dissociated spiral ganglia neurons were harvested from P5 rats. Briefly, pups were rapidly decapitated, and cochlea were dissected. The modiolus was then dissected and digested (0.1% trypsin, 0.1% collagenase, HBSS−/−) for 45 min at 37° C. Sequential trituration was performed with fire-polished pipets to release cells from the tissue, and cells were transferred to laminin/polylysine-coated 24-well plates. Neurons were incubated overnight in culture media (DMEM high glucose, N2 supplement, 10 μg/ml insulin, 25 μg/ml BDNF, 25 μg/ml NT3). To elicit neurite degeneration, cultures were incubated with rotenone (10 μM) for 2 hr in the presence/absence of 10 mM NAD+.\nSpiral ganglia neuron cultures were fixed with 4% paraformaldehyde and permeabilized with 0.5% Triton X-100™/PBS for 10 min. After washing, cells were blocked with 4% donkey serum and incubated with mouse anti-NF200 (1:1000) overnight at 4° C. Neurite beading was then measured using a previously described, unbiased computerized protocol (Sasaki, Y. et al., J. Neuroscience, 29, 5525-5535 (2009)).\nAxonal degeneration in a variety of neurons can be blocked by treatment with millimolar concentrations of NAD+ (Avery, M. A., et al., Current Biology, CB 22, 596-600 (2012)). […] This effect was blocked by simultaneous treatment of neurons with 10 mM NAD+. […]"}, "[2]": {"tested_on": "noise-exposed C57BL6 mice", "assay": "Auditory brainstem response (ABR) testing of noise-induced hearing loss after 90 dB octave band noise exposure for 2 hr", "type": "in vivo", "parameters": "Avg. hearing loss: unit not given here", "settings": "for transient threshold shift: 24 hours after noise exposure", "procedure": "Auditory brainstem response testing was performed as previously described (Willott, J. F., Current Protocols in Neuroscience, 8.21B, B1-B12 (2005). Animals were tested following sedation with ketamine and xylazine (40 mg/kg and 10 mg/kg, respectively). Tone burst stimuli at 8, 16, and 32 kHz for 0.5 msec were used to elicit auditory evoked responses using an auditory brainstem recording system (Intelligent Hearing Systems, Miami, Fla.). An evoked response was determined by identifying waveforms at proper time intervals that increased in magnitude with increasing volume as described previously by Willott.\nAnimals were exposed to a 90 dB octave band for 2 hr in a cage placed in a soundproof chamber (MAC-2, Industrial Acoustics Company, Bronx N.Y.). The mice were able to freely move throughout the cage. The octave band was generated using ToneGen software (NCH software, Greenwood Village, Colo.) routed through an Audiosource Amp100 amplifier driving two down-facing Fostex FT-96H speakers. The sound pressure level was confirmed at 0, 30, 60, and 90 min, and again just prior to completion of sound exposure using an Extech microphone 407736.\nTo test whether augmented NAD biosynthesis protects from noise-induced hearing loss, auditory brainstem responses (ABR) elicited by tone burst stimuli after acoustic trauma was measured. An ABR occurs when a mouse hears the tone burst stimulus. In these experiments, acoustic trauma was elicited in mice by a 90 dB octave band noise exposure for 120 min. To quantify the degree of hearing loss, “threshold shifts” were measured. These shifts refer to the increased level of sound intensity that is required to elicit an ABR. The threshold for detecting sound stimuli is determined by exposing mice to 0.5 msec tone bursts at a specific frequency and volume. […] Transient threshold shifts (TTS) refer to a temporary hearing loss 24 hours after noise exposure, and permanent threshold shifts (PTS) refer to hearing loss that remains 2 weeks after exposure.\n(§1) Nicotinamide riboside (NR) is a well-tolerated precursor of NAD+. In these experiments, NR was administered by intraperitoneal injection twice daily at 1000 mg/kg, a dose which increases tissue NAD levels by 50%, either for 5 days prior to noise exposure and 14 days after noise exposure (NR Before+ After), 5 days prior to noise exposure (NR Before), or 14 days after noise exposure (NR After). […] The hearing loss at 8000 Hz, […], and 32,000 Hz is set forth in the Table and is depicted graphically in FIGS. 4A-4C, respectively."}, "[3]": {"tested_on": "spiral ganglia neurites / inner hair cells of noise-exposed mice", "assay": "Retraction of spiral ganglia neurites from inner hair cells after noise exposure (cochlear immunohistology)", "type": "in vivo", "settings": "basal turn of the cochlea, NR before and after acoustic trauma", "procedure": "Mouse cochlea were prepared as described in Whitlon, D. S. et al., Brain Research Protocols, 6, 159-166 (2001). Mouse cochlea were quickly dissected from the temporal bone following rapid decapitation. Once separated, the apex of the cochlea was gently fenestrated, and the cochlea were immediately fixed in 4% paraformaldehyde overnight at 4° C. The cochlea were then washed with three changes of PBS and incubated in a decalcification solution (10% EDTA/PBS pH 7.4) under constant rotation at 4° C. for 1 week. The decalcification solution was changed daily. Cochlea were washed in 3 changes of PBS and then treated with progressively increasing sucrose concentrations from 10-30%. The cochlea were incubated overnight in 30% sucrose at 4° C. The cochlea were incubated an additional 24 hr in OCT compound (Tissue-Tek). […]\nNoise-induced hearing loss is associated with retraction of spiral ganglia neurites from the inner hair cells. As the most prominent hearing losses are seen in the portion of the auditory spectrum that contains the highest audible frequencies, the basal turn of the cochlea where this portion of the auditory spectrum is detected was focused on. […] Immunofluorescence labeling of the cochlea can readily show whether spiral ganglia neurites are forming their proper contacts with the base of inner hair cells. […]"}, "tissue NAD levels": {"tested_on": "tissue NAD levels", "assay": "Tissue NAD levels after intraperitoneal NR", "type": "in vivo", "settings": "intraperitoneal injection twice daily at 1000 mg/kg", "procedure": "as §1"}},
  "data": [
    {"smiles": "NC(=O)c1ccc[n+]([C@@H]2O[C@H](COP(=O)([O-])OP(=O)(O)OC[C@H]3O[C@@H](n4cnc5c(N)ncnc54)[C@H](O)[C@@H]3O)[C@@H](O)[C@H]2O)c1", "note": "[NAD+]", "values": [
      {"measurement": "effect on rotenone-induced neurite degeneration", "setting": "[1]; simultaneous treatment with 10 mM NAD+ and 10 μM rotenone, 2 hr", "value": "blocked"}
    ]},
    {"smiles": "NC(=O)c1ccc[n+]([C@@H]2O[C@H](CO)[C@@H](O)[C@H]2O)c1", "note": "[NR, Nicotinamide riboside]", "values": [
      {"measurement": "transient threshold shift", "setting": "[2]; 8000 Hz, NR i.p. twice daily 1000 mg/kg", "value": 6, "unit": "dB"},
      {"measurement": "transient threshold shift", "setting": "[2]; 16,000 Hz, NR i.p. twice daily 1000 mg/kg", "value": 8, "unit": "dB"},
      {"measurement": "transient threshold shift", "setting": "[2]; 32,000 Hz, NR i.p. twice daily 1000 mg/kg", "value": 16, "unit": "dB"},
      {"measurement": "Avg. hearing loss", "setting": "[2]; NR after (i.p. twice daily 1000 mg/kg, 14 days after noise), Baseline, 8 kHz", "value": 14},
      {"measurement": "Avg. hearing loss", "setting": "[2]; NR after, 1 wk post noise, 8 kHz", "value": 17},
      {"measurement": "Avg. hearing loss", "setting": "[2]; NR after, 1 wk post noise, 32 kHz", "value": 28},
      {"measurement": "Avg. hearing loss", "setting": "[2]; NR after, 2 wks post noise, 8 kHz", "value": 18},
      {"measurement": "Avg. hearing loss", "setting": "[2]; NR after, 2 wks post noise, 16 kHz", "value": 15},
      {"measurement": "Avg. hearing loss", "setting": "[2]; NR after, 2 wks post noise, 32 kHz", "value": 28},
      {"measurement": "Avg. hearing loss", "setting": "[2]; NR after, 24 h post noise, 8 kHz", "value": 23},
      {"measurement": "Avg. hearing loss", "setting": "[2]; NR after, 24 h post noise, 16 kHz", "value": 23},
      {"measurement": "Avg. hearing loss", "setting": "[2]; NR after, 24 h post noise, 32 kHz", "value": 37},
      {"measurement": "Avg. hearing loss", "setting": "[2]; NR after, Baseline, 16 kHz", "value": 19},
      {"measurement": "Avg. hearing loss", "setting": "[2]; NR after, Baseline, 32 kHz", "value": 31},
      {"measurement": "Avg. hearing loss", "setting": "[2]; NR after, Pre-noise, 8 kHz", "value": 14},
      {"measurement": "Avg. hearing loss", "setting": "[2]; NR after, Pre-noise, 16 kHz", "value": 21},
      {"measurement": "Avg. hearing loss", "setting": "[2]; NR after, Pre-noise, 32 kHz", "value": 16},
      {"measurement": "Avg. hearing loss", "setting": "[2]; NR before (i.p. twice daily 1000 mg/kg, 5 days prior to noise), Baseline, 8 kHz", "value": 14},
      {"measurement": "Avg. hearing loss", "setting": "[2]; NR before and after (i.p. twice daily 1000 mg/kg, 5 days prior to and 14 days after noise), Baseline, 8 kHz", "value": 16},
      {"measurement": "Avg. hearing loss", "setting": "[2]; NR before and after, 1 wk post noise, 8 kHz", "value": 15},
      {"measurement": "Avg. hearing loss", "setting": "[2]; NR before and after, 1 wk post noise, 16 kHz", "value": 25},
      {"measurement": "Avg. hearing loss", "setting": "[2]; NR before and after, 1 wk post noise, 32 kHz", "value": 40},
      {"measurement": "Avg. hearing loss", "setting": "[2]; NR before and after, 2 wks post noise, 8 kHz", "value": 20},
      {"measurement": "Avg. hearing loss", "setting": "[2]; NR before and after, 2 wks post noise, 16 kHz", "value": 20},
      {"measurement": "Avg. hearing loss", "setting": "[2]; NR before and after, 2 wks post noise, 32 kHz", "value": 20},
      {"measurement": "Avg. hearing loss", "setting": "[2]; NR before and after, 24 h post noise, 8 kHz", "value": 22},
      {"measurement": "Avg. hearing loss", "setting": "[2]; NR before and after, 24 h post noise, 16 kHz", "value": 26},
      {"measurement": "Avg. hearing loss", "setting": "[2]; NR before and after, 24 h post noise, 32 kHz", "value": 44},
      {"measurement": "Avg. hearing loss", "setting": "[2]; NR before and after, Baseline, 16 kHz", "value": 13},
      {"measurement": "Avg. hearing loss", "setting": "[2]; NR before and after, Baseline, 32 kHz", "value": 19},
      {"measurement": "Avg. hearing loss", "setting": "[2]; NR before and after, Pre-noise, 8 kHz", "value": 16},
      {"measurement": "Avg. hearing loss", "setting": "[2]; NR before and after, Pre-noise, 16 kHz", "value": 18},
      {"measurement": "Avg. hearing loss", "setting": "[2]; NR before and after, Pre-noise, 32 kHz", "value": 28},
      {"measurement": "Avg. hearing loss", "setting": "[2]; NR before, 1 wk post noise, 8 kHz", "value": 15},
      {"measurement": "Avg. hearing loss", "setting": "[2]; NR before, 1 wk post noise, 16 kHz", "value": 23},
      {"measurement": "Avg. hearing loss", "setting": "[2]; NR before, 1 wk post noise, 32 kHz", "value": 23},
      {"measurement": "Avg. hearing loss", "setting": "[2]; NR before, 2 wks post noise, 8 kHz", "value": 18},
      {"measurement": "Avg. hearing loss", "setting": "[2]; NR before, 2 wks post noise, 16 kHz", "value": 18},
      {"measurement": "Avg. hearing loss", "setting": "[2]; NR before, 2 wks post noise, 32 kHz", "value": 23},
      {"measurement": "Avg. hearing loss", "setting": "[2]; NR before, 24 h post noise, 8 kHz", "value": 18},
      {"measurement": "Avg. hearing loss", "setting": "[2]; NR before, 24 h post noise, 16 kHz", "value": 25},
      {"measurement": "Avg. hearing loss", "setting": "[2]; NR before, 24 h post noise, 32 kHz", "value": 38},
      {"measurement": "Avg. hearing loss", "setting": "[2]; NR before, Baseline, 16 kHz", "value": 16},
      {"measurement": "Avg. hearing loss", "setting": "[2]; NR before, Baseline, 32 kHz", "value": 21},
      {"measurement": "Avg. hearing loss", "setting": "[2]; NR before, Pre-noise, 8 kHz", "value": 13},
      {"measurement": "Avg. hearing loss", "setting": "[2]; NR before, Pre-noise, 16 kHz", "value": 18},
      {"measurement": "Avg. hearing loss", "setting": "[2]; NR before, Pre-noise, 32 kHz", "value": 17},
      {"measurement": "protection from permanent hearing loss", "setting": "[2]; all 3 frequencies (8000, 16,000, 32,000 Hz), NR i.p. twice daily 1000 mg/kg", "value": "similarly protected"},
      {"measurement": "neurite retraction (distance of spiral ganglia neurites from inner hair cells)", "setting": "[3]; 24 hr after noise exposure", "value": "4.3±4.5", "unit": "μm"},
      {"measurement": "neurite retraction (distance of spiral ganglia neurites from inner hair cells)", "setting": "[3]; 14 d after noise exposure", "value": "2.5±3.5", "unit": "μm"},
      {"measurement": "increase of tissue NAD levels", "setting": "tissue NAD levels", "value": 50, "unit": "%"}
    ]},
    {"smiles": "C=C(C)[C@H]1Cc2c(ccc3c2O[C@@H]2COc4cc(OC)c(OC)cc4[C@@H]2C3=O)O1", "note": "[rotenone]", "values": [
      {"measurement": "neurite degeneration, as measured by the presence of neurite blebbing", "setting": "[1]; 10 μM rotenone, in as early as 2 hr", "value": "resulted in neurite degeneration"}
    ]}
  ]
}
